The results in this text go back to patent US6869933B2, “HIV-specific CTL inducing peptides and medicaments for preventing or treating AIDS comprising the peptides” (Ajinomoto Co., Inc., priority 1999, dated 2005).

Test [1] deals with C1R-A*1101 cells infected with vaccinia virus expressing HIV-1 Pol protein or Env protein. The format is cell-based, human.
Test [2] concerns HLA-A*1101 positive Tm EBV transformed cells pulsed with the peptide. Kind of test: Induction of specific CTL after a single stimulation with the peptides in PBMC from HIV-subtype E-seropositive patients carrying HLA-A11. Conditions: for patients from whom the specific CTL could be induced: HIV-1 subtype E infected patients carrying HLA-A11.
The test system is the same in test [3]. The test can be described thus: Induction of specific CTL by a single stimulation with the peptides in PBL from HIV-seropositive patients carrying HLA-A11 (51Cr release CTL assay). The conditions noted are these: for patients in whom peptide-specific CTL activity was induced: six HIV-1 seropositive patients carrying HLA-A*1101.
For test [4] the test system is unchanged. The test can be described thus: Induction of specific CTL after a single stimulation with the peptides in PBMC from HIV-subtype B-seropositive patients carrying HLA-A11.
Where [5] appears, read: patient TT-005, effector:target 40:1, peptide 1 μM.
[6] abbreviates: patient TT-007, effector:target 40:1, peptide 1 μM.
The mark [7] stands for this setting: patient TT-008, effector:target 40:1, peptide 1 μM.
[8] abbreviates: patient TT-009, effector:target 40:1, peptide 1 μM.
The mark [9] stands for this setting: patient TU-002, effector:target 40:1, peptide 1 μM.
Where [10] appears, read: patient TU-003, effector:target 40:1, peptide 1 μM.
[11] abbreviates: patient TU-007, effector:target 40:1, peptide 1 μM.
The mark [12] stands for this setting: patient five, effector:target 5:1, peptide 1 μM.
The mark [13] stands for this setting: patient five, effector:target 40:1, peptide 1 μM.
Where [14] appears, read: patient four, effector:target 5:1, peptide 1 μM.
Where [15] appears, read: patient four, effector:target 40:1, peptide 1 μM.
Setting [16] is: patient one, effector:target 5:1, peptide 1 μM.
Where [17] appears, read: patient one, effector:target 40:1, peptide 1 μM.
The mark [18] stands for this setting: patient six, effector:target 5:1, peptide 1 μM.
The mark [19] stands for this setting: patient six, effector:target 40:1, peptide 1 μM.
[20] abbreviates: patient three, effector:target 5:1, peptide 1 μM.
Where [21] appears, read: patient three, effector:target 40:1, peptide 1 μM.
Where [22] appears, read: patient two, effector:target 5:1, peptide 1 μM.
[23] abbreviates: patient two, effector:target 40:1, peptide 1 μM.
The mark [24] stands for this setting: patient KI-005, effector:target 40:1, peptide 1 μM.
The mark [25] stands for this setting: patient KI-015, effector:target 40:1, peptide 1 μM.
[26] abbreviates: patient KI-030, effector:target 40:1, peptide 1 μM.
The mark [27] stands for this setting: patient KI-035, effector:target 40:1, peptide 1 μM.
[28] abbreviates: patient KI-036, effector:target 40:1, peptide 1 μM.

Marks after values point to notes of the source that are not given here.

For the sequence SVITQACPK [SF2-Env202-9], in test [1], the “killing of vaccinia-infected target cells by peptide-specific CTL clones (endogenous processing and presentation by HLA-A*1101)” value is reported as “contain HLA-A*1101 restricted HIV-1 specific CTL epitopes”.

In the case of “QIIEELIKK (Human immunodeficiency virus type 1) [Pol 675-9-5E]”, the “patients from whom the specific CTL could be induced” value in test [2] was “five of seven”. Also, the “relative cell lysis (%)” value in test [2] (setting [5]) is reported as 3.4* %; in test [2] (setting [6]), 55.1%; in test [2] (setting [7]) it was 23.4%; in test [2] (setting [8]), 63.8%; in test [2] (setting [9]) it was 3.4%; in test [2] (setting [10]) it was 0.2%. Moreover, the “relative cell lysis (%)” value in test [2] (setting [11]) is reported as 5.7%.

Consider “AIFQSSMTK (Human immunodeficiency virus type 1) [Pol313-321]”, for which the “relative cell lysis (%)” value is reported as −3.7% in test [3] (setting [12]); 2.8% in test [3] (setting [13]); 26.8% in test [3] (setting [14]); 53.5% in test [3] (setting [15]); 3.7% in test [3] (setting [16]); 13.6% in test [3] (setting [17]). The “relative cell lysis (%)” value in test [3] (setting [18]) was 1.1%; in test [3] (setting [19]) it was 0.7%; in test [3] (setting [20]) it was 2.3%; in test [3] (setting [21]) it was −2.4%; in test [3] (setting [22]), 8.2%; in test [3] (setting [23]) it was 31.1%. In addition, the “patients in whom peptide-specific CTL activity was induced” value in test [3] is listed as “three patients”.

Regarding “DPNPQEVVL (Human immunodeficiency virus type 1) [Env77-85]”, the “relative cell lysis (%)” value in test [3] (setting [12]) was −3.6%; in test [3] (setting [13]), 1.7%; in test [3] (setting [14]), 1.5%; in test [3] (setting [15]), 2.5%; in test [3] (setting [16]), −0.1%; in test [3] (setting [17]), 0.2%. Further, the “relative cell lysis (%)” value was 0.0% in test [3] (setting [18]); 0.5% in test [3] (setting [19]); −2.8% in test [3] (setting [20]); −0.3% in test [3] (setting [21]); −0.4% in test [3] (setting [22]); −1.1% in test [3] (setting [23]).

For “AFDLSFFLK (Human immunodeficiency virus type 1) [Nef 84-9-2F6F]”, the “patients from whom the specific CTL could be induced” value in test [2] was “six of seven”. Moreover, the “relative cell lysis (%)” value was −1.3% in test [2] (setting [5]); 24.6% in test [2] (setting [6]); 75.5% in test [2] (setting [7]); 76.5% in test [2] (setting [8]); 15.4% in test [2] (setting [9]); 41.2% in test [2] (setting [10]). The “relative cell lysis (%)” value in test [2] (setting [11]) came out at 64.2%.

As to “QIIEKLIEK (Human immunodeficiency virus type 1) [Pol 675-9-5K8E]”, the “patients from whom the specific CTL could be induced” value in test [2] is listed as “two of six”. The “relative cell lysis (%)” value in test [2] (setting [5]) is −4.1%; in test [2] (setting [6]) it was 21.7%; in test [2] (setting [7]), 10.3%; in test [2] (setting [8]) it was 4.5%; in test [2] (setting [9]) it was 5.6%; in test [2] (setting [10]) it was −5.6%.

Take “ALDLSHFLK (Human immunodeficiency virus type 1) [Nef 84-9-2L]”: the “patients from whom the specific CTL could be induced” value in test [4] (HIV-1 subtype B infected patients carrying HLA-A11) is “three of five”. Besides, the “relative cell lysis (%)” value in test [4] (setting [24]) stood at 68.3%; in test [4] (setting [25]) it was 6.3%; in test [4] (setting [26]) it was 5.5%; in test [4] (setting [27]) it was 16.4%; in test [4] (setting [28]), 50.4%.

For QIYAGIKVK [SF2-Pol424-9], in test [1], the “killing of vaccinia-infected target cells by peptide-specific CTL clones (endogenous processing and presentation by HLA-A*1101)” value is “contain HLA-A*1101 restricted HIV-1 specific CTL epitopes”. The “relative cell lysis (%)” value in test [3] (setting [12]) was −1.7%; in test [3] (setting [13]) it was −3.7%; in test [3] (setting [14]) it was 11.7%; in test [3] (setting [15]), 27.4** %; in test [3] (setting [16]) it was 3.1%; in test [3] (setting [17]), −0.2%. Also, the “relative cell lysis (%)” value was 2.0% in test [3] (setting [18]); 2.3% in test [3] (setting [19]); −3.3% in test [3] (setting [20]); 7.0% in test [3] (setting [21]); −0.2% in test [3] (setting [22]); 4.9% in test [3] (setting [23]). For the same sequence, the “patients in whom peptide-specific CTL activity was induced” value in test [3] is listed as “one of six patients”.

Consider “AVDLSHFLK (Human immunodeficiency virus type 1) [Nef 84-9, reference compound]”, for which the “relative cell lysis (%)” value in test [4] (setting [24]) was 25.3* %; in test [4] (setting [25]), 68.6%; in test [4] (setting [26]), 6.6%; in test [4] (setting [27]), 5.8%; in test [4] (setting [28]), 16.5%.

Regarding IYQEPFKNLK [Pol496-505], the “relative cell lysis (%)” value is −2.8% in test [3] (setting [12]); 4.9% in test [3] (setting [13]); 4.6% in test [3] (setting [14]); 8.00% in test [3] (setting [15]); −2.9% in test [3] (setting [16]); −0.6% in test [3] (setting [17]). Also, the “relative cell lysis (%)” value was 3.0% in test [3] (setting [18]); 12.9% in test [3] (setting [19]); 3.2% in test [3] (setting [20]); 5.1% in test [3] (setting [21]); 2.6% in test [3] (setting [22]); 2.5% in test [3] (setting [23]). In test [3], the “patients in whom peptide-specific CTL activity was induced” value is “one of six patients”.
